# Where two headings read alike, the source gives them in different places.
# Columns and labels:
# [1] = tested on: MRSA 15187; test: MIC, agar incorporation method; assay type: cell-based, Staphylococcus aureus
# How it was run: (§1)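 Doubling dilutions of compounds in DMSO incorporated into Mueller Hinton agar; 10^4 CFU/spot inoculated from 0.5 McFarland suspensions and incubated 18 h. MIC (μg/ml) taken as lowest concentration with no growth, accepted only when standard antibiotics fell within range on ATCC control strains.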
# [2] = tested on: S. aureus 25923; test: MIC, agar incorporation method; assay type: cell-based, Staphylococcus aureus
# How it was run: as §1
# [3] = tested on: MRSA 33; test: MIC, agar incorporation method; assay type: cell-based, Staphylococcus aureus
# How it was run: (§2)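 Agar incorporation: DMSO-dissolved compounds in doubling dilutions set into Mueller Hinton agar; 10^4 CFU/spot inoculum from a 0.5 McFarland suspension. Incubated 18 h (24 h for MRSN). MIC taken as lowest concentration with no growth, accepted only when ATCC control strains were in range.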
# [4] = tested on: MRSA 562; test: MIC, agar incorporation method; assay type: cell-based, Staphylococcus aureus
# How it was run: as §2
# [5] = tested on: E. faecalis 29212; test: MIC, agar incorporation method; assay type: cell-based, Enterococcus faecalis
# How it was run: as §1
# [6] = tested on: VRE 6A; test: MIC, agar incorporation method; assay type: cell-based, Enterococcus faecium
# How it was run: as §1
# [7] = tested on: S. pyogenes 19615; test: MIC, agar incorporation method; assay type: cell-based, Streptococcus pyogenes
# How it was run: as §1
# [8] = tested on: S. pneum 6303; test: MIC, agar incorporation method; assay type: cell-based, Streptococcus pneumoniae
# How it was run: as §1
# [9] = tested on: S. pneum AB 34; test: MIC, agar incorporation method; assay type: cell-based, Streptococcus pneumoniae
# How it was run: as §2
# [10] = Changes in MIC under different conditions: Agar MIC; assay type: cell-based; details: strain not given
# Description: (§3) The compounds of the invention display antibacterial activity when tested by the agar incorporation method. The following minimum inhibitory concentrations (μg/ml) were obtained for representative compounds of the invention which are given below in the following tables.
# (§4) Briefly, the compounds were dissolved in DMSO and doubling dilution of the compounds were incorporated into Meuller Hilton agar before solidification. Inoculum was prepared by suspending 4 to 5 colonies into 5 ml of normal saline solution and adjusting the turbidity to 0.5 Macfarland turbidity standard tables (1.5×10^8 CFU/ml), after appropriate dilutions, 10^4 CFU/spot was transfered into the surface of dried plate and incubated for 18 hours (24 hours for MRSN studies). The concentration showing no growth of the inoculated culture was recorded as the MIC. Appropriate ATCC standard strains were simultaneously tested and result recorded only when the MIC's against standard antibiotics were within the acceptable range.
# [11] = Changes in MIC under different conditions: Broth MIC; assay type: cell-based; details: strain not given
# [12] = tested on: MRSA 562; test: In vivo activity against MRSA 562 (ED50); parameters: species or system Staphylococcus aureus
# [13] = tested on: G+ve; test: Summary of in vitro activity (MIC) against G+ve bacteria; assay type: cell-based; details: for MIC: read-out: Geometric Mean of in vitro activity (MIC)
# Description: as §3, §4
# [14] = tested on: S. aureus; test: Summary of in vitro activity (MIC) against S. aureus; assay type: cell-based, Staphylococcus aureus; details: for MIC: read-out: Geometric Mean of in vitro activity (MIC)
# Description: as §3, §4
# [15] = tested on: E. faecalis; test: Summary of in vitro activity (MIC) against E. faecalis; assay type: cell-based, Enterococcus faecalis; details: for MIC: read-out: Geometric Mean of in vitro activity (MIC)
# Description: as §3, §4
# [16] = tested on: S. pneumoniae; test: Summary of in vitro activity (MIC) against S. pneumoniae; assay type: cell-based, Streptococcus pneumoniae; details: for MIC: read-out: Geometric Mean of in vitro activity (MIC)
# Description: as §3, §4
# [17] = S. aureus 25923, agar incorporation
# [18] = MRSA 562, agar incorporation, Table 1
# [19] = E. faecalis 29212, agar incorporation
# [20] = S. pyogenes 19615, agar incorporation
# [21] = S. pneum 6303, agar incorporation
# [22] = S. pneum AB 34, agar incorporation
compound,measurement,setting,value
"CC(=O)NC[C@H]1CN(c2ccc(N3CCN(C(=O)c4ccoc4)CC3)c(F)c2)C(=O)O1 [Compound No. 08, (S)-N[[3-[3-Fluoro-4-[N-1[4-(3-furoyl)]piperazinyl]phenyl]2-oxo-5-oxazolidinyl]methyl]cetamide]",MIC,"[1]; MRSA 15187, agar incorporation",1 µg/mL
same,MIC,[2]; [17],2 µg/mL
same,MIC,"[3]; MRSA 33, agar incorporation",1 µg/mL
same,MIC,"[4]; MRSA 562, Table 5",1 µg/mL
same,MIC,[4]; [18],1 µg/mL
same,MIC,[5]; [19],1 µg/mL
same,MIC,"[6]; VRE 6A, agar incorporation",1 µg/mL
same,MIC,[7]; [20],1 µg/mL
same,MIC,[8]; [21],2 µg/mL
same,MIC,[9]; [22],4 µg/mL
same,Agar MIC,[10],1 µg/mL
same,Broth MIC +50% Sheep serum,[11],4 µg/mL
same,Broth MIC Normal MH broth,[11],2 µg/mL
same,ED50 (mg/kg body weight) PO,[12],25 mg/kg body weight
"CC(=O)NC[C@H]1CN(c2ccc(N3CCN(C(=O)c4ccc([N+](=O)[O-])s4)CC3)c(F)c2)C(=O)O1.Cl [Compound No. 29, (S)-N[[3-[3-Fluoro-4-[N-1[4-(5-nitro-2-thienoyl)]piperazinyl]-phenyl]2-oxo-5-oxazolidinyl]methyl]acetamide hydrochloride]",MIC,"[1]; MRSA 15187, agar incorporation",<0.1 µg/mL
same,MIC,[2]; [17],0.25 µg/mL
same,MIC,"[3]; MRSA 33, agar incorporation",<0.1 µg/mL
same,MIC,"[4]; MRSA 562, Table 5",<0.1 µg/mL
same,MIC,[4]; [18],<0.1 µg/mL
same,MIC,[5]; [19],1 µg/mL
same,MIC,"[6]; VRE 6A, agar incorporation",0.5 µg/mL
same,MIC,[7]; [20],1 µg/mL
same,MIC,[8]; [21],1 µg/mL
same,MIC,[9]; [22],1 µg/mL
same,MIC50,"[13]; G+ve, Number 49",1 µg/mL
same,MIC90,"[13]; G+ve, Number 49",1 µg/mL
same,MIC50,"[14]; S. aureus, Number 8",0.064 µg/mL
same,MIC90,"[14]; S. aureus, Number 8",0.25 µg/mL
same,MIC50,"[15]; E. faecalis, Number 7",1 µg/mL
same,MIC90,"[15]; E. faecalis, Number 7",1 µg/mL
same,MIC50,"[16]; S. pneumoniae, Number 19",1 µg/mL
same,MIC90,"[16]; S. pneumoniae, Number 19",1 µg/mL
same,Agar MIC,[10],<0.1 µg/mL
same,Broth MIC +50% Sheep serum,[11],0.5 µg/mL
same,Broth MIC Normal MH broth,[11],0.25 µg/mL
same,ED50 (mg/kg body weight) PO,[12],>25 mg/kg body weight
CC(=O)NC[C@H]1CN(c2ccc(N3CCC(N(C)C(=O)c4ccc([N+](=O)[O-])o4)CC3)c(F)c2)C(=O)O1 [Compound No. 44],MIC,"[1]; MRSA 15187, agar incorporation",<0.1 µg/mL
same,MIC,[2]; [17],0.25 µg/mL
same,MIC,"[3]; MRSA 33, agar incorporation",<0.1 µg/mL
same,MIC,"[4]; MRSA 562, Table 5",<0.1 µg/mL
same,MIC,[4]; [18],<0.1 µg/mL
same,MIC,[5]; [19],0.25 µg/mL
same,MIC,"[6]; VRE 6A, agar incorporation",<0.1 µg/mL
same,MIC,[7]; [20],0.5 µg/mL
same,MIC,[8]; [21],2 µg/mL
same,MIC,[9]; [22],2 µg/mL
same,MIC50,"[13]; G+ve, Number 49",0.5 µg/mL
same,MIC90,"[13]; G+ve, Number 49",2 µg/mL
same,Geometric Mean of in vitro activity (MIC),[13]; Gram +ve,0.31 µg/mL
same,Geometric Mean of in vitro activity (MIC),[14]; S. aureus,0.11 µg/mL
same,MIC50,"[14]; S. aureus, Number 8",0.064 µg/mL
same,MIC90,"[14]; S. aureus, Number 8",0.25 µg/mL
same,Geometric Mean of in vitro activity (MIC),[15]; E. faecalis,0.11 µg/mL
same,MIC50,"[15]; E. faecalis, Number 7",0.064 µg/mL
same,MIC90,"[15]; E. faecalis, Number 7",0.25 µg/mL
same,Geometric Mean of in vitro activity (MIC),[16]; S. pneumoniae,0.96 µg/mL
same,MIC50,"[16]; S. pneumoniae, Number 19",1 µg/mL
same,MIC90,"[16]; S. pneumoniae, Number 19",2 µg/mL
same,Agar MIC,[10],<0.1 µg/mL
same,Broth MIC +50% Sheep serum,[11],0.25 µg/mL
same,Broth MIC Normal MH broth,[11],<0.1 µg/mL
same,ED50 (mg/kg body weight) PO,[12],>25 mg/kg body weight
"CC(=O)NC[C@H]1CN(c2ccc(N3CCOCC3)c(F)c2)C(=O)O1 [Linezolid, reference compound]",MIC,"[1]; Staphylococcus aureus, MRSA 15187, agar incorporation, read-out: MIC",1 µg/mL
same,MIC,"[2]; Staphylococcus aureus, S. aureus 25923, agar incorporation, read-out: MIC",2 µg/mL
same,MIC,"[3]; Staphylococcus aureus, MRSA 33, agar incorporation, read-out: MIC",2 µg/mL
same,MIC,"[4]; MRSA 562, Table 5",2 µg/mL
same,MIC,"[4]; Staphylococcus aureus, MRSA 562, agar incorporation, Table 1, read-out: MIC",2 µg/mL
same,MIC,"[5]; Enterococcus faecalis, E. faecalis 29212, agar incorporation, read-out: MIC",2 µg/mL
same,MIC,"[6]; Enterococcus, VRE 6A, agar incorporation, read-out: MIC",2 µg/mL
same,MIC,"[7]; Streptococcus pyogenes, S. pyogenes 19615, agar incorporation, read-out: MIC",2 µg/mL
same,MIC,"[8]; Streptococcus pneumoniae, S. pneum 6303, agar incorporation, read-out: MIC",2 µg/mL
same,MIC,"[9]; Streptococcus pneumoniae, AB34, S. pneum AB 34, agar incorporation, read-out: MIC",4 µg/mL
same,MIC50,"[13]; G+ve, Number 49, read-out: MIC50",2 µg/mL
same,MIC90,"[13]; G+ve, Number 49, read-out: MIC90",4 µg/mL
same,MIC,[13]; Gram +ve,1.25 µg/mL
same,MIC50,"[14]; Staphylococcus aureus, S. aureus, Number 8, read-out: MIC50",2 µg/mL
same,MIC90,"[14]; Staphylococcus aureus, S. aureus, Number 8, read-out: MIC90",4 µg/mL
same,MIC,"[14]; Staphylococcus aureus, S. aureus",2.38 µg/mL
same,MIC50,"[15]; Enterococcus faecalis, E. faecalis, Number 7, read-out: MIC50",4 µg/mL
same,MIC90,"[15]; Enterococcus faecalis, E. faecalis, Number 7, read-out: MIC90",16 µg/mL
same,MIC,"[15]; Enterococcus faecalis, E. faecalis",4 µg/mL
same,MIC50,"[16]; Streptococcus pneumoniae, S. pneumoniae, Number 19, read-out: MIC50",0.5 µg/mL
same,MIC90,"[16]; Streptococcus pneumoniae, S. pneumoniae, Number 19, read-out: MIC90",2 µg/mL
same,MIC,"[16]; Streptococcus pneumoniae, S. pneumoniae",0.6 µg/mL
same,Agar MIC,[10],2 µg/mL
same,Broth MIC +50% Sheep serum,[11],2 µg/mL
same,Broth MIC Normal MH broth,[11],1 µg/mL
"CN[C@H](CC(C)C)C(=O)N[C@H]1C(=O)N[C@@H](CC(N)=O)C(=O)N[C@H]2C(=O)N[C@H]3C(=O)N[C@H](C(=O)N[C@H](C(=O)O)c4cc(O)cc(O)c4-c4cc3ccc4O)[C@H](O)c3ccc(c(Cl)c3)Oc3cc2cc(c3O[C@@H]2O[C@H](CO)[C@@H](O)[C@H](O)[C@H]2O[C@H]2C[C@](C)(N)[C@H](O)[C@H](C)O2)Oc2ccc(cc2Cl)[C@H]1O [Vancomycin, reference compound]",MIC,"[1]; Staphylococcus aureus, MRSA",0.5 µg/mL
same,MIC,"[2]; Staphylococcus aureus, 25923",1 µg/mL
same,MIC,"[3]; Staphylococcus aureus, MRSA",0.5 µg/mL
same,MIC,"[4]; MRSA 562, Table 5",0.5 µg/mL
same,MIC,"[4]; Staphylococcus aureus, MRSA",0.5 µg/mL
same,MIC,"[5]; Enterococcus faecalis, 29212",4 µg/mL
same,MIC,"[6]; Enterococcus, VRE",> 16 µg/mL
same,MIC,"[7]; Streptococcus pyogenes, 19615",0.5 µg/mL
same,MIC,"[8]; Streptococcus pneumoniae, 6303",0.5 µg/mL
same,MIC,"[9]; Streptococcus pneumoniae, AB34",0.25 µg/mL
same,MIC50,[13],0.5 µg/mL
same,MIC90,[13],16 µg/mL
same,MIC,[13],0.93 µg/mL
same,MIC50,[14]; Staphylococcus aureus,1 µg/mL
same,MIC90,[14]; Staphylococcus aureus,1 µg/mL
same,MIC,[14]; Staphylococcus aureus,1 µg/mL
same,MIC50,[15]; Enterococcus faecalis,16 µg/mL
same,MIC90,[15]; Enterococcus faecalis,16 µg/mL
same,MIC,[15]; Enterococcus faecalis,9.75 µg/mL
same,MIC50,[16]; Streptococcus pneumoniae,0.5 µg/mL
same,MIC90,[16]; Streptococcus pneumoniae,0.5 µg/mL
same,MIC,[16]; Streptococcus pneumoniae,0.39 µg/mL
same,Agar MIC,[10],1 µg/mL
same,Broth MIC +50% Sheep serum,[11],1 µg/mL
same,Broth MIC Normal MH broth,[11],1 µg/mL
